Test results: publication PMC10605449 (Biosensors, 2023)
Changes are numbered by the printed parent chain.

Tests used:
Type in all cases: binding
NUAK2(1-628) = molecular target: T1, NUAK2(1-628) (Homo sapiens, UniProt Q9H093); test: SPR, pure GST-NUAK2(1-628) immobilized by amine coupling, GSK461364A injected; conditions: pure NUAK2(1-628); 15 °C
T1 construct: GST-NUAK2(1-628) was purchased from Carna Biosciences, Inc (Kobe, Japan); purchased Carna Biosciences, Inc (Kobe, Japan)
T1 sequence (Q9H093 1-628): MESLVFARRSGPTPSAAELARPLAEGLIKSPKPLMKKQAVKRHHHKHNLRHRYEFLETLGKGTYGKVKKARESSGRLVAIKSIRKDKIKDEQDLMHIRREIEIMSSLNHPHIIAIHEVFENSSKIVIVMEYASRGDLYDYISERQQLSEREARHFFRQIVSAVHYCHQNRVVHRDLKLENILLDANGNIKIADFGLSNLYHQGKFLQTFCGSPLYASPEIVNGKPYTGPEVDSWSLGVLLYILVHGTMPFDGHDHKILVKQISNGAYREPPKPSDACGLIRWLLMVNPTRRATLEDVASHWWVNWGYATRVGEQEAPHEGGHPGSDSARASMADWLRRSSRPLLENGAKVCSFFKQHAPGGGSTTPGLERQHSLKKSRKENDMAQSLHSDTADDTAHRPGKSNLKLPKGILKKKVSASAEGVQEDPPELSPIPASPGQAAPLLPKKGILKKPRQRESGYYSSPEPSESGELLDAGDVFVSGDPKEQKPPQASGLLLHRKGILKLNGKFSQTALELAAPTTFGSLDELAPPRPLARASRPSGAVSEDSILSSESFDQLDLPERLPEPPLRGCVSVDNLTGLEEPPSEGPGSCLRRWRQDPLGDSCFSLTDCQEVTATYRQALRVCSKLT
Description: (§1) The interaction analysis cycles consisted of 140 s of sample injection followed by 350 to 600 s of running buffer flow. The running buffer was composed of 20 mM HEPES pH 7.4, 100 mM NaCl, 5 mM MgCl2, 1 mM EGTA, 1 mM DTT, 0.05% Tween-20, and 2% DMSO, and the experiment was performed at 15 °C.
(§2) All sensorgrams were processed by first subtracting the binding response recorded from the control surface (reference spot, where only the avidin protein is immobilized), followed by subtraction of the buffer blank injection from the reaction spot. All datasets were fitted to a simple 1:1 Langmuir interaction model to determine the kinetic rate constants, and the interaction affinity was additionally calculated at a steady state when applicable. In cases where small molecules were present during the assay, a DMSO solvent correction (1–3%) was applied to account for variations in bulk signal and to achieve high-quality data. The experiments with immobilized purified proteins were performed on a Biacore 4000 (Cytiva, Uppsala, Sweden), and the interaction was evaluated using the provided Biacore 4000 evaluation software, while the experiments with soluble cell lysates on a Biacore T200 (Cytiva, Uppsala, Sweden) used the provided Biacore T200 evaluation software. All SPR experiments were performed in duplicate.

MARK3(48-370) Mutant 5 = molecular target: T2, MARK3(48-370) Mutant 5 (Homo sapiens, UniProt P27448, A68G/E139D/F199L/F67Y/G137R/I62L/L128I/L130I/N66T/T204H/V116I/V205Q); test: SPR Extract2Chip, cellular biotinylated MARK3 Mutant 5, GSK461364A injected; conditions: 15 °C
T2 construct: made in house; host or cells: E. coli Rosetta 2, co-expressed with BirA; soluble lysate used without purification
T2 sequence (P27448 48-370 I62L/N66T/F67Y/A68G/V116I/L128I/L130I/G137R/E139D/F199L/T204H/V205Q): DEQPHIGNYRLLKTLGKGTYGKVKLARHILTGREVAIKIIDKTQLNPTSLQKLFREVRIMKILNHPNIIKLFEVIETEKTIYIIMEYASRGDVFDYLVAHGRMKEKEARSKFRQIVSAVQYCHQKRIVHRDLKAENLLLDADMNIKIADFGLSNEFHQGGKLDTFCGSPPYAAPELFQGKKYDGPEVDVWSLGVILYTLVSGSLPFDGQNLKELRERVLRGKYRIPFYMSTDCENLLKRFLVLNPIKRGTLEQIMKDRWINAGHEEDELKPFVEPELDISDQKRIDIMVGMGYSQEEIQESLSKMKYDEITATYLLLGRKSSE
Description: (§3) The cellular biotinylation of MARK3(48-370) kinase domain mutants followed the same approach as described for CypD. The 6 different mutants were expressed in Rosetta^TM 2 in PB media, and induced with 100 µM IPTG overnight at 18 °C.
(§4) The cellular biotinylated MARK3 NUAK2-like mutants were immobilized using the approach described in Section 2.5.2. The soluble cell lysates were diluted to a final concentration of 200 µg/mL, then injected over the neutravidin surfaces for 200 or 1400 s in order to reach 1000 to 2300 RU.
as §1
(§5) All sensorgrams were processed by first subtracting the binding response recorded from the control surface (reference spot, where only the avidin protein is immobilized), followed by subtraction of the buffer blank injection from the reaction spot. All datasets were fitted to a simple 1:1 Langmuir interaction model to determine the kinetic rate constants, and the interaction affinity was additionally calculated at a steady state when applicable. […]

MARK3(48-370) Mutant 4 = molecular target: T3, MARK3(48-370) Mutant 4 (Homo sapiens, UniProt P27448, A68G/E139D/F199L/F67Y/I62L/L128I/L130I/N66T/T204H/V116I/V205Q); test: SPR Extract2Chip, cellular biotinylated MARK3 Mutant 4, GSK461364A injected; conditions: 15 °C
T3 construct: made in house; host or cells: E. coli Rosetta 2, co-expressed with BirA; soluble lysate used without purification
T3 sequence (P27448 48-370 I62L/N66T/F67Y/A68G/V116I/L128I/L130I/E139D/F199L/T204H/V205Q): T2 sequence (P27448 48-370 I62L/N66T/F67Y/A68G/V116I/L128I/L130I/G137R/E139D/F199L/T204H/V205Q) with R90G
Description: as §3, §4, §1, §5

MARK3(48-370) = molecular target: T4, MARK3(48-370) (Homo sapiens, UniProt P27448); test: SPR, pure MARK3(48-370) WT immobilized by amine coupling, GSK461364A injected
T4 construct: The purified His6-TEV-MARK3(48-370) was immobilized using the same approach as GST-NUAK2(1-628); HRV3C site (C, cleaved yes); AviTag (C, cleaved yes); made in house
T4 sequence (P27448 48-370): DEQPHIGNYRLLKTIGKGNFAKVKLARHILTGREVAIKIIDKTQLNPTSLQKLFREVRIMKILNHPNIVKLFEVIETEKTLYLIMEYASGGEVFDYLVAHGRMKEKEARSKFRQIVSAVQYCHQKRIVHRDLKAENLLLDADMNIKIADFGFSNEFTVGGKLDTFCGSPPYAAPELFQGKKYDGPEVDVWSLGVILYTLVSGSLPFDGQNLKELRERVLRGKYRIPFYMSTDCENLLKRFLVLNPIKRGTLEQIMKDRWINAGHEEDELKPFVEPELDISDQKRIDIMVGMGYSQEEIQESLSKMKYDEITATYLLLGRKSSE
Description: as §1, §2

kd ± SD (NUAK2(1-628)): 0.031 ± 0.017 s⁻¹ | kd ± SD (MARK3(48-370) Mutant 5): 0.035 ± 0.012 s⁻¹ | kd ± SD (MARK3(48-370) Mutant 4): 0.029 ± 0.0028 s⁻¹ | Binding behavior (MARK3(48-370)): transient binding behavior
Compound: C[C@@H](Oc1cc(-n2cnc3ccc(CN4CCN(C)CC4)cc32)sc1C(N)=O)c1ccccc1C(F)(F)F [GSK461364A]
